Data set [1] relates to Schistosoma mansoni. Briefly: Antischistosomal activity against Schistosoma mansoni BH assessed as reduction in parasitic viability at 25 uM after 24 hrs inverted light microscopic method. It counts as functional, organism-based.
Data set [2] in a line: Selectivity index, ratio of CC50 for cytotoxicity against human HaCaT cells to LC50 for antischistosomal activity against Schistosoma mansoni BH. It counts as toxicity, cell-based. The settings on record: read-out: Selectivity Index.
Data set [3] deals with Schistosoma mansoni. Description: Antischistosomal activity against male Schistosoma mansoni BH assessed as dilation of testes at 25 uM after 72 hrs microscopic method. It counts as functional, organism-based.
A short description of data set [4]: Cytotoxicity against human SH-SY5Y cells assessed as reduction in cell viability after 48 hrs by MTT assay. It counts as cell-based. Background: Formazan colour is commonly taken as a measure of viable cells.
Data set [5] in a line: Selectivity index, ratio of CC50 for cytotoxicity against human SH-SY5Y cells to LC50 for antischistosomal activity against Schistosoma mansoni BH. It counts as toxicity, cell-based. The settings on record: read-out: Selectivity Index.
Data set [6] deals with Schistosoma mansoni. Description: Antischistosomal activity against Schistosoma mansoni BH assessed as reduction in parasitic viability after 72 hrs by inverted microscopic method. It counts as functional.
The subject of data set [7] is Schistosoma mansoni. Description: Antischistosomal activity against Schistosoma mansoni BH assessed as reduction in oviposition at 25 uM after 72 hrs light microscopic method. It counts as functional, organism-based.
Data set [8] relates to Schistosoma mansoni. Briefly: Antischistosomal activity against female Schistosoma mansoni BH assessed as dilation of ovaries at 25 uM after 72 hrs microscopic method. It counts as functional, organism-based.
Data set [9] can be described thus: Cytotoxicity against human HaCaT cells assessed as reduction in cell viability after 48 hrs by MTT assay. It counts as cell-based.
Data set [10] deals with Schistosoma mansoni. Briefly: Antischistosomal activity against Schistosoma mansoni BH cercariae infected in mouse assessed as reduction in egg burden in wall of intestine at 400 mg/kg, po administered as dose starting on day 49 post-infection and measured after 14 days post treatment relative to control. Particulars: time 14 day. Further details: scale not given: the % may be the effect or the level left. It counts as functional.

Data set [11] can be described thus: Toxicity in mouse infected with Schistosoma mansoni BH cercariae at 400 mg/kg, po after 14 days administered as dose starting on day 49 post-infection and measured after 14 days. It counts as organism-based. The settings on record: in vivo, 336 h, time 14 day.
The test system of data set [12] is Schistosoma mansoni. Briefly: Antischistosomal activity against Schistosoma mansoni BH assessed as reduction in oviposition at 6.25 to 25 uM after 72 hrs light microscopic method. Particulars: dose 6.25-25 µM. It counts as functional, organism-based.
Data set [13] concerns Schistosoma mansoni. Description: Antischistosomal activity against Schistosoma mansoni BH cercariae infected in mouse assessed as reduction in liver weight at 400 mg/kg, po administered as dose starting on day 49 post-infection and measured after 14 days post treatment relative to control. It counts as functional. Further details: scale not given: the % may be the effect or the level left. The settings on record: time 14 day.

For data set [14], the system named is Schistosoma mansoni. Briefly: Antischistosomal activity against Schistosoma mansoni BH cercariae infected in mouse assessed as reduction in egg burden in fecal at 400 mg/kg, po administered as dose starting on day 49 post-infection and measured after 14 days post treatment relative to control. It counts as functional. On the set-up: scale not given: the % may be the effect or the level left. Particulars: time 14 day.

Data set [15] concerns Schistosoma mansoni. Briefly: Antischistosomal activity against Schistosoma mansoni BH cercariae infected in mouse assessed as reduction in worm burden at 400 mg/kg, po administered as single dose starting on day 49 post-infection and measured after 14 days post treatment relative to control. It counts as functional. Further details: scale not given: the % may be the effect or the level left. The settings on record: time 14 day.

Data set [16] deals with Schistosoma mansoni. Description: Antischistosomal activity against Schistosoma mansoni BH cercariae infected in mouse assessed as reduction in spleen weight at 400 mg/kg, po administered as dose starting on day 49 post-infection and measured after 14 days post treatment relative to control. It counts as functional. Further details: scale not given: the % may be the effect or the level left. The settings on record: time 14 day.

The source made the active and inactive calls. No cut-off for these calls is given here. Where only a bound is given, the exact number is not on record here.

On to `C=C1C[C@@]23CC[C@H]4[C@@](C)(CCC[C@@]4(C)C(=O)O)[C@@H]2CC[C@@H]1C3` [KAURENOIC ACID], for which the outcome with Schistosoma mansoni [1] and in the data set with Schistosoma mansoni [7] was Active. Further, the selectivity ratio in data set [2] stood at 4.2; in data set [5] it was 1.7. The result with Schistosoma mansoni [3] and in the data set on Schistosoma mansoni [8] was inactive. In addition, the 50% cytotoxic concentration (CC50) at 48 h in data set [4] amounted to 45.4 µM; in data set [9], 109 µM. Also, the 50% lethal concentration (LC50) with Schistosoma mansoni [6] turned out to be 26.1 µM.
As to `C=C1[C@@H]2CC[C@H]3[C@]4(C)CCC[C@@](C)(C(=O)O)[C@H]4CC[C@]3(C2)[C@H]1OC(=O)C=C(C)C`, the result in the data set with Schistosoma mansoni [1], in the data set on Schistosoma mansoni [3], with Schistosoma mansoni [12] and with Schistosoma mansoni [8] was Active. Moreover, the selectivity ratio stood at 12.7 in data set [2] and 9.1 in [5]. Moreover, the figures for the 50% cytotoxic concentration (CC50) at 48 h in data set [4] and in data set [9] were 106 µM and 147 µM, respectively. The Activity in the data set with Schistosoma mansoni [10] was 69.2%; in data set [11], “Non-Toxic”; with Schistosoma mansoni [13] it was 23.5%; in the data set with Schistosoma mansoni [14], 71.6%; in the data set on Schistosoma mansoni [15], 61.9%; with Schistosoma mansoni [16] it was 29.8%. Moreover, the LC50 in the data set with Schistosoma mansoni [6] was found to be 11.6 µM.
Take `O=C(C1CCCCC1)N1CC(=O)N2CCc3ccccc3C2C1` (stereo not given) [PRAZIQUANTEL]: the selectivity ratio in data set [2] and in data set [5] was greater than 180 throughout. The 50% cytotoxic concentration (CC50) at 48 h in data set [4] and in data set [9] was greater than 200 µM throughout. Moreover, in the data set with Schistosoma mansoni [6], the LC50 worked out at 1.1 µM. In addition, the Activity with Schistosoma mansoni [15] was 91.1%.

What is called CC50 is the concentration that lowers cell viability or growth by half. Usually LC50 stands for the concentration that kills 50% of the test population.
